# According to patent US11412737B2, “Mixtures of beflubutamid or optically enriched forms thereof with a second herbicide” (FMC Corporation, priority 2016, dated 2022):
# Legend:
# Common chickweed (STEME) [1] = test: post-emergence test, weed control; type: in vivo, Stellaria media; settings: post-emergent, 28 DAT; BFL at 187.5 g, PYX at 45 g, combination of both
# Procedure: (§1) Test compositions containing the test compounds were diluted with water to provide the appropriate test rate concentrations.
# For post-emergence testing, seeds of each species for each rate of application of each herbicide solution were planted in 7.5 cm×7.5 cm plastic pots filled with potting soil. The seeds were germinated and the resulting plants were allowed to grow in a greenhouse until they reached a growth stage, such as height, suitable for testing. […] Pots of post-emergent treated plants were returned to the greenhouse and not watered for 24 hours after treatment. Thereafter they were regularly watered and fertilized for the duration of the test.
# The control of weeds was evaluated in each experimental test at 21 for wheat and 28 days after treatment (DAT) for all species. […] The rating system is as follows in Table 1.
# Green foxtail (SETVI) [2] = test: post-emergence test, weed control; type: in vivo, Setaria viridis; settings: post-emergent, 28 DAT; BFL at 187.5 g, PYX at 90 g, combination of both
# Procedure: as §1
# (§2) For post-emergence testing, seeds of each species for each rate of application of each herbicide solution were planted in 7.5 cm×7.5 cm plastic pots filled with potting soil. The seeds were germinated and the resulting plants were allowed to grow in a greenhouse until they reached a growth stage, such as height, suitable for testing. Treatments were applied using compressed air in a track spray chamber at 30 gallons/acre (280 L/ha) using a TeeJet 8001E nozzle at 40 psi (2.76 bars). Pots of post-emergent treated plants were returned to the greenhouse and not watered for 24 hours after treatment. Thereafter they were regularly watered and fertilized for the duration of the test.
# (§3) The control of weeds was evaluated in each experimental test at 21 for wheat and 28 days after treatment (DAT) for all species. Data were analyzed using Minitab software at 95% confidence interval. The results, shown as an average of the replications, were compared with results observed in untreated control flats in the same tests. Percent control was determined by a method similar to the 0 to 100 rating system disclosed in “Research Methods in Weed Science,” 2nd ed., B. Truelove, Ed.; Southern Weed Science Society; Auburn University, Auburn, Ala., 1977. The rating system is as follows in Table 1.
# [3] = test system: Common lambsquarters (CHEAL); test: pre-emergence test, weed control; type: in vivo, Chenopodium album; settings: pre-emergent, 28 DAT, (+)-BFL >95% e.e.; rate g ai/ha by row: r6 62.5, r7 125, r8 62.5, r9 125, r10 222, r11 445, r12 22.5, r13 45, r14 62.5+62.5, r15 125+62.5, r16 62.5+125, r17 125+125, r18 62.5+222, r19 125+222, r20 62.5+445, r21 125+445, r22 62.5+22.5, r23 125+22.5, r24 62.5+45, r25 125+45
# Procedure: as §1
# (§4) For pre-emergence testing, four disposable fiber flats (6 inch by 10 inch) for each rate of application of each herbicide solution were filled with top soil, to which seeds of each species were planted in furrows made by a template pressed on the top of the soil. The furrows were covered with soil after planting the seed and were watered well before application of the test compounds.
# (§5) Fiber flats designated for treatment were placed in a spray chamber having a static platform and a movable sprayer and the height of the spray nozzle was 10.5 inches above the soil level. Once the sprayer was calibrated using water for spray volume of 30 gallons per acre, flats were sprayed with sprayer at a speed to receive a coverage equivalent of 30 gallons per acre. The application rates are those shown in the Tables below for the individual herbicidal solutions and the herbicide compositions of this invention. The pre-emergence flats were immediately placed in the greenhouse and watered lightly after treatment. Thereafter they were regularly watered and fertilized for the duration of the test.
# as §3
# Jimsonweed (DATST) = test: pre-emergence test, weed control; type: in vivo, Datura stramonium; settings: pre-emergent, 28 DAT; BFL at 187.5 g, PYX at 90 g, combination of both
# Procedure: as §1, §4, §5, §3
# Common chickweed (STEME) [4] = test: pre-emergence test, weed control; type: in vivo, Stellaria media; settings: pre-emergent, 28 DAT; BFL at 187.5 g, PYX at 90 g, combination of both
# Procedure: as §1, §4
# Fiber flats designated for treatment were placed in a spray chamber having a static platform and a movable sprayer and the height of the spray nozzle was 10.5 inches above the soil level. Once the sprayer was calibrated using water for spray volume of 30 gallons per acre, flats were sprayed with sprayer at a speed to receive a coverage equivalent of 30 gallons per acre. […]
# The control of weeds was evaluated in each experimental test at 21 for wheat and 28 days after treatment (DAT) for all species. Data were analyzed using Minitab software at 95% confidence interval. […] Percent control was determined by a method similar to the 0 to 100 rating system disclosed in “Research Methods in Weed Science,” 2nd ed., B. Truelove, Ed.; Southern Weed Science Society; Auburn University, Auburn, Ala., 1977. […]
# Palmer amaranth (AMAPA) = test: pre-emergence test, weed control; type: in vivo, Amaranthus palmeri; settings: pre-emergent, 28 DAT, (−)-BFL >95% e.e.; rate g ai/ha by row: r6 62, r7 125, r8 125, r9 250, r10 445, r11 890, r12 45, r13 90, r14 62+125, r15 125+125, r16 62+250, r17 125+250, r18 62+445, r19 125+445, r20 62+890, r21 125+890, r22 62+45, r23 125+45, r24 62+90, r25 125+90
# Procedure: as §1, §4, §5, §3
# Green foxtail (SETVI) [5] = test: pre-emergence test, weed control; type: in vivo, Setaria viridis; settings: pre-emergent, 28 DAT
# Procedure: as §1, §4, §5, §3
# Cheat grass (BROSE) = test: pre-emergence test, weed control; type: in vivo; settings: pre-emergent, 28 DAT, (+)-BFL >95% e.e.; rate g ai/ha by row: r6 62.5, r7 125, r8 62.5, r9 125, r10 222, r11 445, r12 22.5, r13 45, r14 62.5+62.5, r15 125+62.5, r16 62.5+125, r17 125+125, r18 62.5+222, r19 125+222, r20 62.5+445, r21 125+445, r22 62.5+22.5, r23 125+22.5, r24 62.5+45, r25 125+45
# Procedure: as §1, §4, §5, §3
# Yellow foxtail (SETLU) = test: pre-emergence test, weed control; type: in vivo; settings: pre-emergent, 28 DAT
# Procedure: as §1, §4, §5, §3
# Hemp sesbania (SEHE8) = test: pre-emergence test, weed control; type: in vivo; settings: pre-emergent, 28 DAT; BFL at 187.5 g, PYX at 90 g, combination of both
# Procedure: as §1, §4, §5, §3
# Blackgrass (ALOMY) = test: pre-emergence test, weed control; type: in vivo; settings: pre-emergent, 28 DAT
# Procedure: as §1, §4, §5, §3
# Wild oat (AVEFA) [6] = test: post-emergence test, weed control; type: in vivo, Avena fatua; settings: post-emergent, 28 DAT; BFL at 187.5 g, PYX at 90 g, combination of both
# Procedure: as §1, §2, §3
# Wild oat (AVEFA) [7] = test: pre-emergence test, weed control; type: in vivo, Avena fatua; settings: pre-emergent, 28 DAT
# Procedure: as §1, §4, §5, §3
# Redrice (ORYSA) = test: post-emergence test, weed control; type: in vivo; settings: post-emergent, 28 DAT; BFL at 187.5 g, PYX at 90 g, combination of both
# Procedure: as §1, §2, §3
# [8] = (+)-BFL >95% e.e., rate g ai/ha by row: r6 62.5, r7 125, r8 62.5, r9 125, r10 222, r11 445, r12 22.5, r13 45, r14 62.5+62.5, r15 125+62.5, r16 62.5+125, r17 125+125, r18 62.5+222, r19 125+222, r20 62.5+445, r21 125+445, r22 62.5+22.5, r23 125+22.5, r24 62.5+45, r25 125+45, 22.5 g ai/ha
# [9] = (+)-BFL >95% e.e., rate g ai/ha by row: r6 62.5, r7 125, r8 62.5, r9 125, r10 222, r11 445, r12 22.5, r13 45, r14 62.5+62.5, r15 125+62.5, r16 62.5+125, r17 125+125, r18 62.5+222, r19 125+222, r20 62.5+445, r21 125+445, r22 62.5+22.5, r23 125+22.5, r24 62.5+45, r25 125+45, 45 g ai/ha
# [10] = (−)-BFL >95% e.e., rate g ai/ha by row: r6 62, r7 125, r8 125, r9 250, r10 445, r11 890, r12 45, r13 90, r14 62+125, r15 125+125, r16 62+250, r17 125+250, r18 62+445, r19 125+445, r20 62+890, r21 125+890, r22 62+45, r23 125+45, r24 62+90, r25 125+90
# [11] = (−)-BFL >95% e.e., rate g ai/ha by row: r6 62, r7 125, r8 125, r9 250, r10 445, r11 890, r12 45, r13 90, r14 62+125, r15 125+125, r16 62+250, r17 125+250, r18 62+445, r19 125+445, r20 62+890, r21 125+890, r22 62+45, r23 125+45, r24 62+90, r25 125+90, 45 g ai/ha
# [12] = (−)-BFL >95% e.e., rate g ai/ha by row: r6 62, r7 125, r8 125, r9 250, r10 445, r11 890, r12 45, r13 90, r14 62+125, r15 125+125, r16 62+250, r17 125+250, r18 62+445, r19 125+445, r20 62+890, r21 125+890, r22 62+45, r23 125+45, r24 62+90, r25 125+90, 90 g ai/ha
structure (smiles),measurement,setting,value
"Cn1nc(C(F)(F)F)c(CS(=O)(=O)C2=NOC(C)(C)C2)c1OC(F)F [PYX, Pyroxasulfone]",control of common chickweed,Common chickweed (STEME) [1],22%
same,control of green foxtail,Green foxtail (SETVI) [2],66%
same,"percentage of weed control, CHEAL",[3],100%
same,control of jimsonweed,Jimsonweed (DATST),72%
same,control of common chickweed,Common chickweed (STEME) [4],67%
same,"percentage of weed control, AMAPA",Palmer amaranth (AMAPA),100%
same,"percentage of weed control, SETVI",Green foxtail (SETVI) [5]; [8],97%
same,"percentage of weed control, SETVI",Green foxtail (SETVI) [5]; [9],99%
same,"percentage of weed control, SETVI",Green foxtail (SETVI) [5]; [10],99%
same,"percentage of weed control, BROSE",Cheat grass (BROSE),100%
same,"percentage of weed control, SETLU",Yellow foxtail (SETLU); [8],99%
same,"percentage of weed control, SETLU",Yellow foxtail (SETLU); [9],100%
same,"percentage of weed control, SETLU",Yellow foxtail (SETLU); [10],100%
same,control of hemp sesbania,Hemp sesbania (SEHE8),67%
same,"percentage of weed control, ALOMY","Blackgrass (ALOMY); (+)-BFL >95% e.e., rate g ai/ha by row: r6 62.5, r7 125, r8 62.5, r9 125, r10 222, r11 445, r12 22.5, r13 45, r14 62.5+62.5, r15 125+62.5, r16 62.5+125, r17 125+125, r18 62.5+222, r19 125+222, r20 62.5+445, r21 125+445, r22 62.5+22.5, r23 125+22.5, r24 62.5+45, r25 125+45",100%
same,"percentage of weed control, ALOMY",Blackgrass (ALOMY); [11],100%
same,"percentage of weed control, ALOMY",Blackgrass (ALOMY); [12],99%
same,control of wild oats,Wild oat (AVEFA) [6],48%
same,"percentage of weed control, AVEFA",Wild oat (AVEFA) [7]; [8],98%
same,"percentage of weed control, AVEFA",Wild oat (AVEFA) [7]; [9],96%
same,"percentage of weed control, AVEFA",Wild oat (AVEFA) [7]; [11],100%
same,"percentage of weed control, AVEFA",Wild oat (AVEFA) [7]; [12],99%
same,control of red rice,Redrice (ORYSA),39%
